Source: publication PMC12339982 (Nature Communications, 2025)
Residue numbers refer to the chain shown, from its start.

Experiments:
[1] = target: T1, human wild type TauT (TauT^WT) (Homo sapiens, UniProt P31641); test: [3H]taurine uptake inhibition assay in HEK293T cells overexpressing TauT^WT; type: cell-based; settings: result in words
T1 sequence (P31641 1-620): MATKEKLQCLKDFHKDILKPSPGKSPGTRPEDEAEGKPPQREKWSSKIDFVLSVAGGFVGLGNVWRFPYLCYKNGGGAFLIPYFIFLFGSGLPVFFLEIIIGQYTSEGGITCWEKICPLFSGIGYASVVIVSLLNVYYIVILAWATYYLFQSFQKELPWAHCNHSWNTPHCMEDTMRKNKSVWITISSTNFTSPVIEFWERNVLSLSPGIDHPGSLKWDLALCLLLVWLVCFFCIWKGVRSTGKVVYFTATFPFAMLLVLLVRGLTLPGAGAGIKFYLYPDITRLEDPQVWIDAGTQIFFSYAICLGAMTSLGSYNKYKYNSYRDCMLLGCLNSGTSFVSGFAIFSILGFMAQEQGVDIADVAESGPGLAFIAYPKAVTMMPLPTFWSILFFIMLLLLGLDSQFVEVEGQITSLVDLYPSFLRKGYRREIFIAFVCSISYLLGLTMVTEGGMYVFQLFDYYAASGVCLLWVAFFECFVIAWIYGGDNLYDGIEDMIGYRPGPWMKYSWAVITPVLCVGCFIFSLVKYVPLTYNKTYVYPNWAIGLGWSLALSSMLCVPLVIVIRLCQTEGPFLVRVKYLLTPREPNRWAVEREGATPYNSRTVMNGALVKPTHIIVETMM

TauT S402A mutant = target: T2, TauT S402A mutant (Homo sapiens, UniProt P31641, S402A); test: MST binding, TauT S402A; settings: mean ± s.e.m., n=3
T2 sequence (P31641 1-620 S402A): T1 sequence (P31641 1-620) with S402A

TauT^EM = target: T3, TauT^EM (Homo sapiens, UniProt P31641, D486N/D490E/E493R/G491D/K319H/L488F/N487R/R499P/S322V/Y320N/Y489S/Y498F); test: MST binding, TauT^EM; settings: compared with TauT^WT
T3 sequence (P31641 1-620 K319H/Y320N/S322V/D486N/N487R/L488F/Y489S/D490E/G491D/E493R/Y498F/R499P): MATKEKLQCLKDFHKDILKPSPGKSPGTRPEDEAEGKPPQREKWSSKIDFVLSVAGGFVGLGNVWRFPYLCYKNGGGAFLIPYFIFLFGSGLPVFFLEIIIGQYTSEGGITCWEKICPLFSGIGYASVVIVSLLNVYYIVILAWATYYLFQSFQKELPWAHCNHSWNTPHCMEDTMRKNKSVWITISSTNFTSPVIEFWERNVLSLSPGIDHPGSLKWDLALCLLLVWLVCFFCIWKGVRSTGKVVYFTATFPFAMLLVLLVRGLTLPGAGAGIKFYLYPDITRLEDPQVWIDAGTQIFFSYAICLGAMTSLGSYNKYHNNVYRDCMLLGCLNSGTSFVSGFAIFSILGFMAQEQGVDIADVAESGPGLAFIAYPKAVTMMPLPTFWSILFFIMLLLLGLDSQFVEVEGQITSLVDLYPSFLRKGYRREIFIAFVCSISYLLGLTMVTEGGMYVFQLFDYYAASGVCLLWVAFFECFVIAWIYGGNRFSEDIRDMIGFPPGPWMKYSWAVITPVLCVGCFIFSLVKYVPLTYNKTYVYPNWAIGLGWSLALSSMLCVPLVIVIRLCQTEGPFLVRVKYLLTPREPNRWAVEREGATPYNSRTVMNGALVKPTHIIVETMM

TauT L306A mutant = target: T4, TauT L306A mutant (Homo sapiens, UniProt P31641, L306A); test: MST binding, TauT L306A; settings: mean ± s.e.m., n=3
T4 sequence (P31641 1-620 L306A): T1 sequence (P31641 1-620) with L306A

Structure (SMILES)	inhibition of the uptake activity of TauT [1]	Kd (MST) (TauT S402A mutant)	binding affinity (Kd, MST) of TauT^EM (TauT^EM)	Kd (MST) (TauT L306A mutant)
NCCCC(=O)O [GABA, γ-aminobutyric acid]	potent inhibitory effects			
NCCS(=O)(=O)O [Taurine, taurine]		undetectable binding	analogous to those of TauT^WT	
[H]/N=C(/N)NCC(=O)O [GAA, guanidinoacetate]	potent inhibitory effects			drastic loss of GAA binding affinity
